In the assay the test system is P388 leukemia ip, CD2F1 mice, survival T/C. Nature of the assay: NCI In Vivo Anticancer Drug Screen. Data for tumor model P388 Leukemia (intraperitoneal) in CD2F1 (CDF1) mice. The conditions noted are these: endpoint: median survival time, higher = longer survival. Summed up: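 Mice carrying the transplanted tumor received test compound or vehicle. Survival was recorded in each group, and the value is the treated-group measurement divided by that of the vehicle-treated control group.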

Setting [1] is: dose: 12.5 mg/kg/injection, schedule: Q01DX009 (ip), vehicle: saline with Tween-80.
Where [2] appears, read: dose: 100.0 mg/kg/injection, schedule: Q04DX002 (ip), vehicle: saline with Tween-80.
[3] abbreviates: dose: 3.13 mg/kg/injection, schedule: Q04DX003 (ip), vehicle: water.
The mark [4] stands for this setting: dose: 6.25 mg/kg/injection, schedule: Q04DX003 (ip), vehicle: water.
The mark [5] stands for this setting: dose: 12.5 mg/kg/injection, schedule: Q04DX003 (ip), vehicle: water.
Where [6] appears, read: dose: 25.0 mg/kg/injection, schedule: Q04DX003 (ip), vehicle: water.
Where [7] appears, read: dose: 200.0 mg/kg/injection, schedule: Q04DX003 (ip), vehicle: water.
[8] abbreviates: dose: 25.0 mg/kg/injection, schedule: Q01DX009 (ip), vehicle: other.
The mark [9] stands for this setting: dose: 50.0 mg/kg/injection, schedule: Q01DX009 (ip), vehicle: other.
Where [10] appears, read: dose: 100.0 mg/kg/injection, schedule: Q01DX009 (ip), vehicle: other.
Where [11] appears, read: dose: 200.0 mg/kg/injection, schedule: Q01DX009 (ip), vehicle: other.
Where [12] appears, read: dose: 400.0 mg/kg/injection, schedule: Q01DX009 (ip), vehicle: other.
The mark [13] stands for this setting: dose: 25.0 mg/kg/injection, schedule: Q01DX009 (ip), vehicle: saline with Tween-80.
The mark [14] stands for this setting: dose: 100.0 mg/kg/injection, schedule: Q04DX003 (ip), vehicle: saline with Tween-80.
The mark [15] stands for this setting: dose: 100.0 mg/kg/injection, schedule: Q01DX001 (ip), vehicle: saline with Tween-80.
Where [16] appears, read: dose: 50.0 mg/kg/injection, schedule: Q04DX003 (ip), vehicle: water.

Structures are written as SMILES. Values joined by “and” are separate entries in the source; they are usually repeats but may differ in a detail not shown here. Equal entries are not always repeated. Inconclusive results and toxic doses are left out.

Regarding `C[CH2][Sn]([CH2]C)([CH2]C(=O)OC)[CH2]C(=O)OC`, the T/C (dose: 9.0 mg/kg/injection, schedule: Q03HX015 (ip), vehicle: saline with Tween-80) was 153 % of control; the T/C under setting [1] was 170 % of control; the T/C (dose: 18.0 mg/kg/injection, schedule: Q01DX005 (ip), vehicle: saline with Tween-80) was 150 % of control; the T/C (dose: 100.0 mg/kg/injection, schedule: Q01DX009 (ip), vehicle: saline with Tween-80) was 174 % of control.
In the case of `CSC(=S)n1nc(C)c(N=Nc2ccc(Br)cc2)c1C`, the T/C runs as follows: (dose: 100.0 mg/kg/injection, schedule: Q04DX002 (ip), vehicle: Klucel (hydroxypropylcellulose) (HPC)) 107 % of control; (dose: 200.0 mg/kg/injection, schedule: Q04DX002 (ip), vehicle: Klucel (hydroxypropylcellulose) (HPC)) 103 % of control; (dose: 400.0 mg/kg/injection, schedule: Q04DX002 (ip), vehicle: Klucel (hydroxypropylcellulose) (HPC)) 103 % of control.
Turning to `COc1cc(OC)c(C/C=C/c2ccccc2)cc1O`, the T/C is 100 % of control (dose: 2.5 mg/kg/injection, schedule: Q01DX009 (ip), vehicle: saline with Tween-80); 100 % of control (dose: 5.0 mg/kg/injection, schedule: Q01DX009 (ip), vehicle: saline with Tween-80); 102 % of control (dose: 10.0 mg/kg/injection, schedule: Q01DX009 (ip), vehicle: saline with Tween-80).
Take `CC(=O)Oc1cc(OCCCc2ccc(F)cc2)cc2ccc3ccccc3c12`: the T/C runs as follows: under setting [2], 92 % of control; (dose: 400.0 mg/kg/injection, schedule: Q04DX002 (ip), vehicle: saline with Tween-80) 92 % of control.
Turning to `NC(=O)CC1(O)CCCCC1`, the T/C runs as follows: (dose: 25.0 mg/kg/injection, schedule: Q01DX009 (ip), vehicle: saline) 100 % of control; (dose: 50.0 mg/kg/injection, schedule: Q01DX009 (ip), vehicle: saline) 100 % of control; (dose: 100.0 mg/kg/injection, schedule: Q01DX009 (ip), vehicle: saline) 100 % of control.
`COc1cccc2c1C(=O)c1c(O)c3c(c(O)c1C2=O)CC(O)(C(C)=O)CC3OC1CC(NCC2(O)OCC(O)C(O)C2O)C(O)C(C)O1` (stereo not drawn): the T/C runs as follows: under setting [3], 119 % of control; under setting [4], 117 % of control; under setting [5], 119 % of control; under setting [6], 118 % of control; under setting [7], 99 % of control.
Turning to `COc1cc(Br)cc(C=O)c1OC`, the T/C runs as follows: (dose: 12.5 mg/kg/injection, schedule: Q01DX009 (ip), vehicle: other) 98 % of control; under setting [8], 98 % of control; under setting [9], 99 % of control; under setting [10], 98 % of control; under setting [11], 102 % of control; under setting [12], 114 % of control.
Turning to `N#CC(=O)Nc1ccc(Cl)cc1`, the T/C was 103 % of control (dose: 3.75 mg/kg/injection, schedule: Q01DX005 (ip), vehicle: saline with Tween-80); 111 % of control (dose: 7.5 mg/kg/injection, schedule: Q01DX005 (ip), vehicle: saline with Tween-80); 109 % of control (dose: 15.0 mg/kg/injection, schedule: Q01DX005 (ip), vehicle: saline with Tween-80).
In the case of `NNC(=O)c1ccccc1`, the T/C by setting is: under setting [13], 104 % of control; (dose: 50.0 mg/kg/injection, schedule: Q01DX009 (ip), vehicle: saline with Tween-80) 113 % of control; (dose: 50.0 mg/kg/injection, schedule: Q04DX003 (ip), vehicle: saline with Tween-80) 95 % of control; under setting [14], 100 % of control.
Consider `CCOC(=O)CC(C)(O)C1CC1` (stereo not drawn), for which the T/C is 96 % of control (dose: 25.0 mg/kg/injection, schedule: Q01DX009 (ip), vehicle: Klucel (hydroxypropylcellulose) (HPC)); 101 % of control (dose: 50.0 mg/kg/injection, schedule: Q01DX009 (ip), vehicle: Klucel (hydroxypropylcellulose) (HPC)); 105 % of control and 94 % of control (dose: 100.0 mg/kg/injection, schedule: Q01DX009 (ip), vehicle: Klucel (hydroxypropylcellulose) (HPC)); 103 % of control and 122 % of control (dose: 200.0 mg/kg/injection, schedule: Q01DX009 (ip), vehicle: Klucel (hydroxypropylcellulose) (HPC)).
For `NCC(O)COCc1ccccc1` (stereo not drawn), the T/C runs as follows: (dose: 50.0 mg/kg/injection, schedule: Q04DX002 (ip), vehicle: saline with Tween-80) 100 % of control; under setting [15], 90 % of control; under setting [2], 100 % of control.
On to `C(#CCOc1ccc2c(c1)OCO2)COc1ccc2c(c1)OCO2`, for which the T/C runs as follows: under setting [9], 103 % of control; under setting [10], 104 % of control; under setting [11], 105 % of control.
For `Cc1nc2c([N+](=O)[O-])c(N3CCOCC3)c([N+](=O)[O-])cc2[nH]1`, the T/C under setting [14] was 98 % of control; the T/C (dose: 200.0 mg/kg/injection, schedule: Q04DX003 (ip), vehicle: saline with Tween-80) was 103 % of control; the T/C (dose: 400.0 mg/kg/injection, schedule: Q04DX003 (ip), vehicle: saline with Tween-80) is 101 % of control.
Take `COc1cccc2c1C(=O)c1c(O)c3c(c(O)c1C2=O)C[C@@](O)(/C(C)=N/NC(N)=S)C[C@@H]3OC1CC(N)C(O)C(C)O1` (stereo partly drawn): the T/C is 108 % of control under setting [3]; 109 % of control under setting [4]; 112 % of control and 117 % of control under setting [5]; 117 % of control and 123 % of control under setting [6]; 117 % of control and 122 % of control under setting [16]; 155 % of control under setting [7].
Regarding `CCCCN(CCCC)CC(O)c1ccc2cc(Cl)cc(Cl)c2n1` (stereo not drawn), the T/C is 90 % of control (dose: 6.25 mg/kg/injection, schedule: Q01DX009 (ip), vehicle: saline with Tween-80); 100 % of control under setting [1]; 100 % of control under setting [13].
With `Nc1nc(N)c2ncn(-c3ccc(Br)cc3)c2n1`, the T/C (dose: 50.0 mg/kg/injection, schedule: Q01DX005 (ip), vehicle: saline with Tween-80) is 95 % of control; the T/C (dose: 100.0 mg/kg/injection, schedule: Q01DX005 (ip), vehicle: saline with Tween-80) is 92 % of control; the T/C (dose: 200.0 mg/kg/injection, schedule: Q01DX005 (ip), vehicle: saline with Tween-80) is 91 % of control.
With `COC(=O)CCCOc1ccc(N(CCCl)CCCl)cc1`, the T/C (dose: 100.0 mg/kg/injection, schedule: Q04DX003 (ip), vehicle: Klucel (hydroxypropylcellulose) (HPC)) was 194 % of control and the T/C (dose: 200.0 mg/kg/injection, schedule: Q04DX003 (ip), vehicle: Klucel (hydroxypropylcellulose) (HPC)) was 223 % of control.
For the compound `c1ccc2sc(SSN3CCOCC3)nc2c1`, the T/C (dose: 50.0 mg/kg/injection, schedule: Q01DX009 (ip), vehicle: suspension in saline) was 97 % of control; the T/C (dose: 100.0 mg/kg/injection, schedule: Q01DX009 (ip), vehicle: suspension in saline) was 106 % of control; the T/C (dose: 200.0 mg/kg/injection, schedule: Q01DX009 (ip), vehicle: suspension in saline) is 95 % of control; the T/C (dose: 400.0 mg/kg/injection, schedule: Q01DX009 (ip), vehicle: suspension in saline) was 90 % of control.
For the compound `CCC1(C)COC(=O)C1=C(C(=O)OC)C(=O)OC` (stereo not drawn), the T/C (dose: 100.0 mg/kg/injection, schedule: Q04DX003 (ip), vehicle: saline) was 112 % of control; the T/C (dose: 200.0 mg/kg/injection, schedule: Q04DX003 (ip), vehicle: saline) was 113 % of control; the T/C (dose: 400.0 mg/kg/injection, schedule: Q04DX003 (ip), vehicle: saline) was 105 % of control.
`COc1cccc(C(=O)O)c1C(=O)O`: the T/C by setting is: under setting [8], 97 % of control; under setting [9], 100 % of control; under setting [10], 99 % of control; under setting [11], 106 % of control; under setting [12], 103 % of control.
With `COC1=C(C)C(=O)c2[nH]c(Cl)c(C=O)c2C1=O`, the T/C under setting [15] was 99 % of control and the T/C (dose: 200.0 mg/kg/injection, schedule: Q01DX001 (ip), vehicle: saline with Tween-80) was 95 % of control.
With `COc1cccc2c1C(=O)c1c(O)c3c(c(O)c1C2=O)CC(O)(C(=O)CO)CC3OC1CC(NC(=O)C(F)(F)F)C(OC2CC(N)C(O)C(C)O2)C(C)O1` (stereo not drawn), the T/C runs as follows: under setting [3], 109 % of control; under setting [5], 119 % of control; under setting [6], 113 % of control; under setting [16], 117 % of control.

For the origin of these results see PubChem BioAssay AID330 (DTP/NCI, 2004).
